Reference: patent US10604473B2, “Lipids that increase insulin sensitivity and methods of using the same” (Beth Israel Deaconess Medical Center, Inc., priority 2013, dated 2020)

Key:
Human islets = assay: Glucose-stimulated insulin secretion in primary human islets; assay type: cell-based
Description: Two human donors provided cells used in these studies. Donor1 was a person, 5′0″, 157 lbs, with a BMI of 30.5, HbA1C was 5.8, who died from a stroke, but it was witnessed and they had no downtime. Islets were 80% pure and 95% viable. After arrival, islets were incubated overnight in human islet media before stimulation with glucose in presence and absence of 5-PAHSA (lipid A-5). Note 1 IU of Human Insulin=6 nmol=34.8 μg Insulin.
Human islets were divided into ten groups [100 islets per condition]
A] Low glucose [2.5 mM]; B] High glucose [20.0 mM]; C] Low glucose [2.5 mM]+2.5 μL/mL Methanol; D] High glucose [20.0 mM]+2.5 μL/mL Methanol; E] Low glucose+20 μM Lipid A-5; F] High glucose+20 μM Lipid A-5; G] Low glucose+50 μM Lipid A-5; H] High glucose+50 μM Lipid A-5.
Islets were cultured overnight in Human Islet media and next day incubated with KRB buffer for 4 h prior to glucose stimulation.
Following KRB incubation, islets were stimulated with glucose [2.5 mM & 20.0 mM] in the presence and absence of Lipid A-5 [20 & 50 μM] for 45 min
At the end of glucose stimulation the amount of insulin released [μ IU/mL] into the media was measured using Human Insulin ELISA kit. And the insulin content from the islets were extracted to express insulin released into the media as μ IU/mL/islet content.
Donor 2 was a person, 183 cm, 176 lbs, with a BMI of 23.9, HbA1C was 5.0, died from a stroke, but it was witnessed and they had no downtime. Islets were 85% pure and 95% viable. After arrival, islets were incubated overnight in human islet media before stimulation with glucose in presence and absence of 5-PAHSA (Lipid A-5).
Human islets were divided into […] [75 islets per condition]: A] Low glucose [2.5 mM]; B] High glucose [20.0 mM]; C] Low glucose [2.5 mM]+2.5 μL/mL Methanol; D] High glucose [20.0 mM]+2.5 μL/mL Methanol; E] Low glucose+20 μM Lipid A-5; F] High glucose+20 μM Lipid A-5.
Following KRB incubation, islets were stimulated with glucose [2.5 mM & 20.0 mM] in the presence and absence of Lipid A-5 [20 μM] for 45 min.

[1] = Serum 5-PAHSA after oral administration; assay type: in vivo, mouse; conditions: oral gavage
Description: FIG. 56 is a bar graph showing serum 5-PAHSA levels after oral administration of synthesized 5-PAHSA. 3 h after food removal, mice were gavaged with 30 mg/kg body weight (chow-fed) or 45 mg/kg body weight (HFD-fed) of 5-PAHSA. 5 h post gavage, blood was collected via tail vein and serum 5-PAHSA was analyzed by mass spectrometry. n=3 mice per group. Data are expressed as mean±s.e.m. *p<0.05 vs. vehicle treated on the same diet; and δp<0.05 vs. chow vehicle.

aged chow-fed mice = assay: Oral glucose tolerance test in aged chow-fed mice, with serum insulin and GLP-1; assay type: in vivo, mouse
Description: Area under the curve (AUC), *p<0.05 compared to vehicle. […] Area above the curve (AAC). *p<0.05 compared to vehicle. […] Area under the curve (AUC). *p<0.05 compared to vehicle. FIG. 53D is a bar graph showing serum insulin levels 5 min post glucose challenge in chow-fed mice gavaged with 5-PAHSA or vehicle (glucose values shown in FIG. 53C). n=12-14 per group, *p<0.05 compared to vehicle by t-test. FIG. 53E is a bar graph showing serum GLP-1 levels 5 min post glucose challenge from chow-fed mice gavaged with 5-PAHSA or vehicle (glucose levels in FIG. 53C). n=12-14 per group, *p<0.05 compared to vehicle by t-test. FIG. 53F are bar graphs showing insulin secretion from primary human islets from two independent donors. Islets were incubated with low (2.5 mM) or high (20 mM) glucose ex vivo in the presence of 5-PAHSA (20 μM) or vehicle control. n=100 islets per condition, *p<0.05 compared to control 2.5 mM glucose, ^#p<0.05 compared to respective treatments at 2.5 mM glucose, ^$p<0.05 compared to control or diluents at 20 mM glucose by t-test. FIG. 53G are bar graphs showing active GLP-1 secretion from STC-1 cells in response to 5-PAHSA (5-P), 9-PAHSA (9P), […] (LA), GW9508 (GW) or vehicle control (DMSO). n=4 per group, *p<0.05 compared to vehicle by t-test. All data are mean±s.e.m. See also FIG. 56.
Studies were conducted to determine whether the PAHSA effects to improve glucose tolerance resulted entirely from the increased insulin sensitivity or also from improved insulin secretion. Therefore, the effects of PAHSAs on glucose-stimulated insulin secretion were tested in vivo in aged (47 weeks old) chow-fed mice. […] Thus, PAHSAs acutely improve insulin sensitivity and glucose tolerance and stimulate GLP-1 and insulin secretion.

[2] = 5 minutes after glucose administration

serum 5-PAHSA levels versus chow baseline ([1]; HFD-fed mice): more than restored the levels | increase in serum 5-PAHSA levels ([1]; mice on chow (30 mg/kg) and HFD (45 mg/kg), 5 h post gavage): 3-5 fold
SMILES: CCCCCCCCCCCCCCCC(=O)OC(CCCCCCCCCCCCC)CCCC(=O)O (stereo not drawn) [5-PAHSA]
insulin secretion (Human islets; 2.5 mM glucose, 5-PAHSA 20 μM): had no effect on insulin secretion | insulin secretion response (Human islets; 20 mM glucose, 5-PAHSA 20 μM): augmented the insulin secretion response | Glucose Stimulated Insulin Secretion (Human islets; Donor 1): induces Glucose Stimulated Insulin Secretion | Glucose Stimulated Insulin Secretion (Human islets; Donor 2): induces Glucose Stimulated Insulin Secretion | GLP-1 levels (aged chow-fed mice; [2]): increased | insulin secretion (aged chow-fed mice; [2]): acute enhancement of insulin secretion | glucose tolerance (aged chow-fed mice; OGTT, gavage 30 min prior): improved glucose tolerance
